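All cell lines were grown in 96-well plates and treated with compound for 48 hours. TGI denotes the concentration required for complete inhibition of growth.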
How the values were obtained:
Experiment in all cases: NCI-60 cell line screen, 48 h
[1] = test system: OVCAR-4 ovarian
[2] = test system: M19-MEL melanoma
[3] = test system: SF-268 CNS
[4] = test system: SF-295 CNS
[5] = test system: HCT-15 colon
[6] = test system: ACHN renal
[7] = test system: RPMI-8226 leukemia
[8] = test system: NCI-H460 lung
[9] = test system: MALME-3M melanoma
[10] = test system: NCI-H522 lung
[11] = test system: KM12 colon
[12] = test system: SNB-78 CNS
[13] = test system: U251 CNS
[14] = test system: SR leukemia
[15] = test system: CCRF-CEM leukemia
[16] = test system: DLD-1 colon
[17] = test system: HOP-92 NSCLC
[18] = test system: OVCAR-3 ovarian
[19] = test system: NCI-H23 lung
[20] = test system: SK-OV-3 ovarian
[21] = test system: DMS 114 small cell lung
[22] = test system: OVCAR-5 ovarian
[23] = test system: SK-MEL-2 melanoma
[24] = test system: LXFL 529 NSCLC
[25] = test system: SK-MEL-28 melanoma
[26] = test system: HCC-2998 colon
[27] = test system: OVCAR-8 ovarian
[28] = test system: M14 melanoma
[29] = test system: SK-MEL-5 melanoma
[30] = test system: XF 498 CNS
[31] = test system: SW-620 colon
[32] = test system: EKVX NSCLC
[33] = test system: UO-31 renal
[34] = test system: MOLT-4 leukemia
[35] = test system: SF-539 CNS
[36] = test system: UACC-62 melanoma
[37] = test system: SN12C renal
[38] = test system: HL-60(TB) leukemia
[39] = test system: TK-10 renal
[40] = test system: HT29 colon
[41] = test system: DMS 273 small cell lung
[42] = test system: K-562 leukemia
[43] = test system: A498 renal
[44] = test system: A549 NSCLC
[45] = test system: COLO 205 colon
[46] = test system: HOP-62 NSCLC
[47] = test system: UACC-257 melanoma
[48] = test system: KM20L2 colon
[49] = test system: CAKI-1 renal
[50] = test system: SNB-19 CNS
[51] = test system: HCT-116 colon
[52] = test system: IGROV1 ovarian
[53] = test system: 786-0 renal
[54] = test system: HOP-18 NSCLC
[55] = test system: LOX IMVI melanoma
[56] = test system: SNB-75 CNS
[57] = test system: RXF 393 renal
[58] = test system: NCI-H226 lung

Measured: TGI

CC(=O)c1c(P(=O)(OC(C)C)OC(C)C)nn(-c2ccc([N+](=O)[O-])cc2)c1C
> 100 µM: [1] | [2] | [3] | [4] | [5] | [6] | [7] | [8] | [9] | [10] | [11] | [12] | [13] | [14] | [15] | [16] | [17] | [18] | [19] | [20] | [21] | [22] | [23] | [24] | [25] | [26] | [27] | [28] | [29] | [30] | [31] | [32] | [33] | [34] | [35] | [36] | [37] | [38] | [39] | [40] | [41] | [42] | [43] | [44] | [45] | [46] | [47] | [48] | [49] | [50] | [51] | [52]

COc1ccc2cc3[n+](cc2c1O)CCc1cc2c(cc1-3)OCO2
> 100 µM: [53] | [1] | [2] | [54] | [3] | [55] | [4] | [56] | [5] | [6] | [7] | [8] | [9] | [57] | [10] | [11] | [12] | [13] | [15] | [16] | [18] | [19] | [20] | [22] | [23] | [25] | [26] | [27] | [28] | [30] | [31] | [32] | [33] | [34] | [35] | [58] | [36] | [37] | [38] | [39] | [40] | [42] | [43] | [44] | [45] | [46] | [47] | [48] | [50] | [51] | [52]

Reference: PubChem BioAssay (NCI)
